Results as given in patent US7322965B2, “Infection-resistant medical devices” (priority 2002, dated 2008).
In brackets after ≈: the same amount, converted by molar mass. Entries after “also recorded” stand apart in the source; their conditions may differ. Where two headings read alike, the source gives them in different places.

Tests used:
[1] = tested on: S. epidermidis RP62A; experiment: Time course adherence assay (prophylactic and delayed treatment); format: cell-based; details: for inhibition at 1 µg/mL / inhibition at 2 µg/mL / inhibition at 4 µg/mL / inhibition at 8 µg/mL: Staphylococcus epidermidis, read-out: Percent inhibition of bacterial adherence relative to controls
Description: (§1) Drug effects on bacterial adherence were measured 18 hours after treatment initiation using a quantitative spectrophotometric assay.
(§2) Relative inhibition of adherence was expressed by the following equation: (OD of control well−OD of treated well/OD of control well)×100, where OD is the mean optical density of six replicate wells from two separate experiments (three replicates per experiment). Control was defined as infected, drug-free cultures.
(§3) The primary efficacy variable in this study was the measurement of adherent bacteria to polystyrene surfaces after 18 hours to 24 hours of growth. To determine whether statistically significant differences existed between treatments (4×MIC, 2×MIC, MIC, and ½ MIC) compared with the infected-nontreated controls, multiple comparisons according to Dunnett's test (Montgomery, Design and Analysis of Experiments (1991)) were applied for each clinical strain. Differences were considered statistically significant when p<0.05.

[2] = tested on: S. epidermidis UC-20207; experiment: as above; format: cell-based; details: for inhibition at 1 µg/mL / inhibition at 2 µg/mL / inhibition at 4 µg/mL / inhibition at 8 µg/mL: Staphylococcus epidermidis, read-out: Percent inhibition of bacterial adherence relative to controls; for Mean OD550: UC-20207
Description: as §1, §2, §3

[3] = tested on: S. epidermidis UC-20207; experiment: Determination of minimum inhibitory concentration (microdilution); format: cell-based; details: Staphylococcus epidermidis, UC20207, 18 h, read-out: MIC (minimum inhibitory concentration)
[4] = tested on: S. aureus and S. epidermidis strains; experiment: Microtiter-plate adherence assay, summary over all strains evaluated; format: cell-based, staphylococci; details: concentrations less than the MIC, as low as one-fourth the MIC; five strains
Description: Briefly, the inoculum was established by the direct colony suspension method using the Prompt™ Inoculation System (Becton Dickinson, Sparks, Md.). The bacteria suspension, which was equal to the turbidity of a 0.5 McFarland standard, was diluted in TSB to a concentration of 1×10^6 colony forming units per ml (CFU/mL). One hundred microliters of the cell suspension was added to flat-bottom polystyrene wells (Corning Costar, Corning, N.Y.) containing 100 μl of TSB, with and without drug. The final inoculum concentration per well was approximately 5×10^5 CFU/mL. The plates were incubated at 37° C. under static conditions in air. At 18 hours (h) post-infection, the optical density of bacterial growth was measured at a wavelength of 595 nm in a microtiter plate reader (Vmax; Molecular Devices, Sunnyvale, Calif.). […] Adherent “sessile” cells then were fixed with 3.7% (v/v) formaldehyde/2% (w/v) sodium acetate and stained with 0.1% (w/v) crystal violet. Excess stain was rinsed off with deionized water and the plates were air-dried for 4 h. The optical density of bacterial adherence was determined at a wavelength of 550 nm. Preliminary studies were performed to determine the optimal wavelengths for measuring growth turbidity and stained adherent cells (data not shown). To compensate for background absorbance, optical density readings from wells treated with sterile medium, fixative and stain as described above were averaged and then subtracted from all test and control wells. Relative inhibition of adherence or growth was expressed by the following equation: (OD of control well−OD of treated well/OD of control well)×100, where OD is the mean optical density of six replicate wells from two separate experiments (three replicates per experiment). Control was defined as infected, drug-free cultures.
The primary efficacy variable in this study was the measurement of adherent bacterial cells to polystyrene after 18 h of growth. To determine whether statistically significant differences existed between treatment groups (MIC, ½ MIC, and ¼ MIC) compared with the infected-nontreated controls, the Kruskal-Wallis one-way analysis of variance (ANOVA) was applied for each clinical strain. Statistical significance was defined as p-values ≦0.05. An asterisk (*) was placed by all test values less than or equal to the specified significance level.

[5] = 1.0 μg/ml, treatment 0 h post-infection
[6] = 2.0 μg/ml (MIC), treatment 0 h post-infection
[7] = 2.0 μg/ml (MIC), treatment 2 h post-infection
[8] = 2.0 μg/ml (MIC), treatment 4 h post-infection
[9] = 4.0 μg/ml, treatment 0 h post-infection
[10] = 4.0 μg/ml, treatment 2 h post-infection
[11] = 4.0 μg/ml, treatment 4 h post-infection
[12] = 8.0 μg/ml, treatment 0 h post-infection
[13] = 8.0 μg/ml, treatment 2 h post-infection
[14] = 8.0 μg/ml, treatment 4 h post-infection
[15] = 8.0 μg/ml, treatment 6 h post-infection

CN[C@H](CC(C)C)C(=O)N[C@H]1C(=O)N[C@@H](CC(N)=O)C(=O)N[C@H]2C(=O)N[C@H]3C(=O)N[C@H](C(=O)N[C@H](C(=O)O)c4cc(O)cc(O)c4-c4cc3ccc4O)[C@H](O)c3ccc(c(Cl)c3)Oc3cc2cc(c3O[C@@H]2O[C@H](CO)[C@@H](O)[C@H](O)[C@H]2O[C@H]2C[C@](C)(N)[C@H](O)[C@H](C)O2)Oc2ccc(cc2Cl)[C@H]1O [Vancomycin]
Mean OD550 [1, 5]: 0.664 ± 0.632 | Mean OD550 ([1]; 1.0 μg/ml, treatment 2 h post-infection): 1.147 ± 0.527 | Mean OD550 ([1]; 1.0 μg/ml, treatment 4 h post-infection): 2.311 ± 0.318 | Mean OD550 ([1]; 1.0 μg/ml, treatment 6 h post-infection): 2.202 ± 0.238 | Mean OD550 [1, 6]: 0.002 ± 0.002 | Mean OD550 [1, 7]: 0.000 ± 0.001 | Mean OD550 [1, 8]: 1.312 ± 0.936 | Mean OD550 ([1]; 2.0 μg/ml (MIC), treatment 6 h post-infection): 2.114 ± 0.439 | Mean OD550 [1, 9]: 0.002 ± 0.002 | Mean OD550 [1, 10]: 0.000 ± 0.002 | Mean OD550 [1, 11]: 0.003 ± 0.004 | Mean OD550 ([1]; 4.0 μg/ml, treatment 6 h post-infection): 1.562 ± 0.573 | Mean OD550 [1, 12]: 0.001 ± 0.001 | Mean OD550 [1, 13]: 0.000 ± 0.001 | Mean OD550 [1, 14]: 0.004 ± 0.004 | Mean OD550 [1, 15]: 0.025 ± 0.030 | inhibition at 1 µg/mL ([1]; 0 h): 69.3% | inhibition at 2 µg/mL ([1]; 0 h): 99.9% | inhibition at 4 µg/mL ([1]; 0 h): 99.9% | inhibition at 8 µg/mL ([1]; 0 h): 99.9% | inhibition at 1 µg/mL ([1]; 2 h): 41.4% | inhibition at 2 µg/mL ([1]; 2 h): 100% | inhibition at 4 µg/mL ([1]; 2 h): 100% | inhibition at 8 µg/mL ([1]; 2 h): 100% | inhibition at 1 µg/mL ([1]; 4 h): 0% | inhibition at 2 µg/mL ([1]; 4 h): 29.4% | inhibition at 4 µg/mL ([1]; 4 h): 99.8% | inhibition at 8 µg/mL ([1]; 4 h): 99.8% | inhibition at 1 µg/mL ([1]; 6 h): 0% | inhibition at 2 µg/mL ([1]; 6 h): 0% | inhibition at 4 µg/mL ([1]; 6 h): 19% | inhibition at 8 µg/mL ([1]; 6 h): 98.7% | inhibition at 1 µg/mL ([2]; UC20207, 0 h): 0% | inhibition at 2 µg/mL ([2]; UC20207, 0 h): 99.8% | inhibition at 4 µg/mL ([2]; UC20207, 0 h): 99.9% | inhibition at 8 µg/mL ([2]; UC20207, 0 h): 99.9% | inhibition at 1 µg/mL ([2]; UC20207, 2 h): 0% | inhibition at 2 µg/mL ([2]; UC20207, 2 h): 99.4% | inhibition at 4 µg/mL ([2]; UC20207, 2 h): 99.8% | inhibition at 8 µg/mL ([2]; UC20207, 2 h): 99.7% | inhibition at 1 µg/mL ([2]; UC20207, 4 h): 0% | inhibition at 2 µg/mL ([2]; UC20207, 4 h): 3.6% | inhibition at 4 µg/mL ([2]; UC20207, 4 h): 98.8% | inhibition at 8 µg/mL ([2]; UC20207, 4 h): 99% | inhibition at 1 µg/mL ([2]; UC20207, 6 h): 0% | inhibition at 2 µg/mL ([2]; UC20207, 6 h): 0% | inhibition at 4 µg/mL ([2]; UC20207, 6 h): 0% | inhibition at 8 µg/mL ([2]; UC20207, 6 h): 88.5% | Mean OD550 [2, 5]: 2.389 ± 0.175 | Mean OD550 [2, 6]: 0.005 ± 0.004 | Mean OD550 [2, 7]: 0.014 ± 0.010 | Mean OD550 [2, 8]: 2.693 ± 0.527 | Mean OD550 [2, 9]: 0.003 ± 0.002 | Mean OD550 [2, 10]: 0.006 ± 0.003 | Mean OD550 [2, 11]: 0.033 ± 0.010 | Mean OD550 [2, 12]: 0.003 ± 0.002 | Mean OD550 [2, 13]: 0.007 ± 0.003 | Mean OD550 [2, 14]: 0.028 ± 0.014 | Mean OD550 [2, 15]: 0.326 ± 0.046 | MIC [3]: 2 µg/mL (≈ 1.38 µM) | effect on bacterial adhesion at subinhibitory concentrations [4]: minimal or no activity against bacterial adhesion; also recorded: did not inhibit staphylococcal adherence in four of the five strains assessed
